Test results as given in patent US20220152031A1, “PYRIDAZINONES AND METHODS OF USE THEREOF” (Goldfinch Bio, Inc., priority 2019, published 2022).
“Also recorded” adds a separate entry of the source.

Tests used:
[1] = test system: PAN-injured rats; assay: Puromycin aminonucleoside (PAN)-induced glomerular injury in rats; type: in vivo, Sprague-Dawley rats; conditions: for albuminuria: PAN model of glomerular injury in rats
Source text: The objective of this study is to evaluate the dose-dependent effects of compound 100 on PAN induced glomerular kidney injury as indexed by albuminuria. Eighty (80), male Sprague-Dawley rats weighing approximately 125-150 g and approximately 5-6 weeks of age were acquired from Charles River. They were fed a standard chow diet (Harlan 8640), housed under standard conditions, and allowed to acclimate for at least 5 days prior to study inception. On D-2, rats were placed into weight-matched treatment groups and were placed, individually housed, into metabolic cages for the balance of the study. A 24 hour baseline (Day 0) urine was collected followed by a baseline blood collection via conscious tail venous puncture. Rats were then administered vehicle or test article. Two (2) hours following administration of vehicle or test agent on Day 0, rats received an administration of (5 mL/kg, s.c.) vehicle (sterile saline) or puromycin aminonucleoside (PAN; challenge agent; 75 mg/kg) dissolved in vehicle. Intermittent (Day 4, 7 and 10) 24 hour urine volumes were determined and samples (4 samples/animal/time point; 0.5 mL/sample) were obtained. Additionally, intermittent (Day 4, 7 and 10) blood samples were collected via conscious tail venous puncture 2 hours±1 minute post-AM dose. Immediately following the last blood collection, rats were anesthetized with isoflurane, tissues harvested, and animals sacrificed. Endpoint kidney weights and indices were obtained. Urine samples were immediately flash-frozen in liquid N2 and stored at −80° C. until analyzed. Whole blood samples collected on K3EDTA were processed appropriately for the production of plasma for PK measurements.

[2] = test system: AT1R transgenic rats; assay: AT1R transgenic rat model of FSGS; type: in vivo; conditions: oral once daily 3 mg/kg or 10 mg/kg; UniNX and AngII infusion; up to 3 weeks of treatment
Description: The AT1R transgenic rat model of FSGS is characterized by podocyte-specific expression of human AT1R. […] See Zhou et al., Science (2017), vol. 358 (6368), 1332-1336. In the present study, pathophysiology in AT1R transgenic rats was accelerated with unilateral nephrectomy (UniNX) and minipump AngII infusion. Compound 100 was dosed orally once daily at 3 mg/kg or 10 mg/kg, and the urine protein creatinine ratio was determined at −1, 0, 1, 2, and 3 weeks of treatment.

[3] = Drug exposure in human kidney organoid implanted under the rat kidney capsule after oral dosing; type: in vivo; conditions: 10 mg/kg PO QD for 3 consecutive days, necropsy after 3 days
Description: Initially a space was created under the kidney capsule with angled fine forceps. A 22G blunt needle was used to further open the space under the kidney capsule. An angled cut was made at the tip of the 18G feeding tube attached to a 1 mL syringe. The 18G feeding tube was pre-wet with APEL2 medium, and one organoid from the dish containing APEL2 with the 18G feeding tube was carefully aspirated, keeping the entire organoid close to the tip of the 18G feeding tube, and not aspirating organoid into the syringe. An 18G feeding tube containing the organoid was inserted into the space created under the kidney capsule, and the organoid was injected towards the back end of the created space. The animal was closed, and then the procedure was repeated on the second kidney. After the second transplant, the animal was closed again and allowed to recover from anesthesia. The next organoid was started to be removed from TW (2+1 spare organoids) upon closing of animal after second kidney capsule transplant.
Compound 100 was administered to animals after transplant orally, once-daily as follows:
After 3 days, necropsy was performed to study distribution of compound 100 in the animal.

Compound: O=c1[nH]ncc(N2CCc3c(ncnc3Oc3ccc(F)cc3C(F)(F)F)C2)c1Cl [Compound 100, 4-chloro-5-[4-[4-fluoro-2-(trifluoromethyl)phenoxy]-5H,6H,7H,8H-pyrido[3,4-d]pyrimidin-7-yl]-2,3-dihydropyridazin-3-one]
- urinary albumin excretion ([1]; 30 mg/kg BID dosing, at 7 and 10 days): Significant reductions
- urinary albumin excretion ([1]; 30 mg/kg QD dosing, at 10 days): Significant reductions
- urinary albumin excretion ([1]; 30 mg/kg once (QD) or twice (BID) daily, following injury with PAN): reduced urinary albumin excretion
- albuminuria [1]: effective in reducing albuminuria
- efficacy (urine protein creatinine ratio) [2]: efficacious
- drug exposure in implanted organoid [3]: drug exposure in the implanted organoid; also recorded: drug exposure in an implanted organoid

Compound: NC(=O)c1ncn([C@@H]2O[C@H](CO)[C@@H](O)[C@H]2O)c1O [Mizoribine, mizoribine, reference compound]
- albuminuria [1]: efficacious in reducing albuminuria
